Assay results: the supplement of paper PMC10307832

Experiments:
Assay in all cases: relative viability (nuclei count vs DMSO), 5 days (fraction); higher = more cells survive
[1] = compound: C=CC(=O)N1CCC[C@@H](n2nc(-c3ccc(Oc4ccccc4)cc3)c3c(N)ncnc32)C1 [Ibrutinib] + CC(C)C[C@H](NC(=O)[C@H](Cc1ccccc1)NC(=O)c1cnccn1)B(O)O [Bortezomib] (partner 0.002 µM)
Summary of the method: (§1)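 Relative viability divides the nuclei count in treated wells by that in vehicle wells. Lung cancer cell lines were seeded in 1536-well plates, dosed by pin tool the next day, and fixed and stained after 5 days in one step with final 0.05% Triton X-100, 1% formaldehyde and 1 ug/ml Hoechst. Dosing was a single drug or a fixed anchor-drug dose plus five library-drug doses (not always all listed) in √10 steps, and values are medians of duplicate plates imaged at 4×.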

[2] = compound: C=CC(=O)Nc1cc(-n2c(=O)ccc3cnc4ccc(-c5ccc(NS(C)(=O)=O)cc5)cc4c32)ccc1C [BMX-IN-1] + Nc1ncn([C@H]2C[C@H](O)[C@@H](CO)O2)c(=O)n1 [Decitabine] (partner 2 µM)
Summary of the method: as §1

[3] = compound: C=CC(=O)N1CCC[C@@H](n2nc(-c3ccc(Oc4ccccc4)cc3)c3c(N)ncnc32)C1 [Ibrutinib] + C[C@@H](Oc1cc(-c2cnn(C3CCNCC3)c2)cnc1N)c1c(Cl)ccc(F)c1Cl [Crizotinib] (partner 1 µM)
Summary of the method: as §1

[4] = compound: C=CCc1cccc(/C=N/NC(=O)CN2CCN(Cc3ccccc3)CC2)c1O [PAC-1] + CCNC(=O)c1noc(-c2cc(C(C)C)c(O)cc2O)c1-c1ccc(CN2CCOCC2)cc1 [Luminespib] (partner 0.01 µM)
Summary of the method: as §1

| Cell Line | relative viability ([1]; first compound 0.01581 µM) | relative viability ([1]; first compound 0.05 µM) | relative viability ([1]; first compound 0.1581 µM) | relative viability ([1]; first compound 0.5 µM) | relative viability ([2]; first compound 0.02 µM) | relative viability ([2]; first compound 0.2 µM) | relative viability ([2]; first compound 0.6325 µM) | relative viability ([2]; first compound 2 µM) | relative viability ([3]; first compound 0.005 µM) | relative viability ([3]; first compound 0.01581 µM) | relative viability ([3]; first compound 0.05 µM) | relative viability ([3]; first compound 0.1581 µM) | relative viability ([3]; first compound 0.5 µM) | relative viability ([4]; first compound 0.02 µM) | relative viability ([4]; first compound 0.06325 µM) | relative viability ([4]; first compound 0.2 µM) | relative viability ([4]; first compound 2 µM) | relative viability ([1]; first compound 0.005 µM) |
| --- | --- | --- | --- | --- | --- | --- | --- | --- | --- | --- | --- | --- | --- | --- | --- | --- | --- | --- |
| SK-LU-1 | 1.11 | 0.897 | 1.14 | 1.23 | 0.789 | 0.679 | 0.834 | 0.679 | 0.869 | 0.741 | 1.04 | 1.1 | 0.859 | 0.216 | 0.375 | 0.223 | 0.191 |  |
| RERF-LC-KJ | 0.977 | 1.03 | 1 | 0.851 | 0.788 | 0.692 | 0.851 | 0.758 | 0.865 | 0.742 | 0.825 | 0.889 | 0.815 | 1.22 | 1.2 | 1.16 | 1.06 | 0.96 |
| LXF-289 | 0.985 | 0.966 | 0.959 | 0.914 | 0.388 | 0.338 | 0.374 | 0.41 | 0.948 | 0.804 | 0.807 | 0.784 | 0.791 | 0.683 | 0.731 | 0.758 | 0.756 | 1.09 |
| LC-2-ad | 1 | 1.06 | 0.965 | 1.02 | 0.836 | 0.938 | 0.889 | 0.733 |  | 0.449 | 0.546 | 0.476 | 0.419 | 1.06 | 1.02 | 0.971 | 0.963 | 1.18 |
| NCI-H23 | 1.02 | 0.938 | 1.07 | 1.13 | 0.326 | 0.295 | 0.338 | 0.296 | 0.539 | 0.528 | 0.527 | 0.592 | 0.466 | 0.231 | 0.223 | 0.237 | 0.219 | 0.839 |
